Source: ChEMBL document CHEMBL1909046, “DrugMatrix in vitro pharmacology data”

Assays:
[1] = molecular target: T1, Type-2 angiotensin II receptor (Homo sapiens, UniProt P50052); assay: biochemical; format: cell-based, CHO-K1; details: cho-k1; note: in other assays of this panel Not Active means under 50% inhibition at 10 µM
T1 sequence (P50052 whole entry): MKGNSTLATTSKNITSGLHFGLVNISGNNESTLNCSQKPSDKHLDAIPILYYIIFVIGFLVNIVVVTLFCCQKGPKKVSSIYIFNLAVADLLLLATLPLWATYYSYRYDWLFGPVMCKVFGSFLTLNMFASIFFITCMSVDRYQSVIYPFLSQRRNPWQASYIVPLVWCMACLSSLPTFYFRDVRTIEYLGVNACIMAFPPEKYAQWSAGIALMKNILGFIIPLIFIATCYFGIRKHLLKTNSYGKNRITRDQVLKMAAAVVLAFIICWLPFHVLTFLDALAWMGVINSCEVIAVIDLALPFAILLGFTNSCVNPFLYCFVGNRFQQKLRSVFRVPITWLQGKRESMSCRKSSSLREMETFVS

[2] = molecular target: Beta-1 adrenergic receptor (Homo sapiens, UniProt P08588); assay: DRUGMATRIX: Adrenergic beta1 radioligand binding (ligand: [125I] Cyanopindolol); format: cell membranes, CHO-K1, Membrane; details: cho-k1; Not Active = under 50% inhibition at 10 µM
Sequence of Beta-1 adrenergic receptor (P08588 whole entry): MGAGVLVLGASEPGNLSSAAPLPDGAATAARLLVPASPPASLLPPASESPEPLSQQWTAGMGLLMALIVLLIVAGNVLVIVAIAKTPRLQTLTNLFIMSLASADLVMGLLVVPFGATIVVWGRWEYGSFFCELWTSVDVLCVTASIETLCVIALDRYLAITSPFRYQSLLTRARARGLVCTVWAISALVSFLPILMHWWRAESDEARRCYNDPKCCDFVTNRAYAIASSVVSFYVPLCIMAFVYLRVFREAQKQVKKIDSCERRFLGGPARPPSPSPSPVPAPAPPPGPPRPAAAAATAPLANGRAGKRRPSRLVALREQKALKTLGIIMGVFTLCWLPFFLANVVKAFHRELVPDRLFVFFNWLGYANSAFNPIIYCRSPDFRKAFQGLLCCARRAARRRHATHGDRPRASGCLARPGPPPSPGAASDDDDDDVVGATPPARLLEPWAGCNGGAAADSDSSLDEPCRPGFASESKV

Endothelin-1 receptor = molecular target: T2, Endothelin-1 receptor (Homo sapiens, UniProt P25101); format: cell membranes, Membrane; details: cho-k1; note: in other assays of this panel Not Active means under 50% inhibition at 10 µM
T2 sequence (P25101 whole entry): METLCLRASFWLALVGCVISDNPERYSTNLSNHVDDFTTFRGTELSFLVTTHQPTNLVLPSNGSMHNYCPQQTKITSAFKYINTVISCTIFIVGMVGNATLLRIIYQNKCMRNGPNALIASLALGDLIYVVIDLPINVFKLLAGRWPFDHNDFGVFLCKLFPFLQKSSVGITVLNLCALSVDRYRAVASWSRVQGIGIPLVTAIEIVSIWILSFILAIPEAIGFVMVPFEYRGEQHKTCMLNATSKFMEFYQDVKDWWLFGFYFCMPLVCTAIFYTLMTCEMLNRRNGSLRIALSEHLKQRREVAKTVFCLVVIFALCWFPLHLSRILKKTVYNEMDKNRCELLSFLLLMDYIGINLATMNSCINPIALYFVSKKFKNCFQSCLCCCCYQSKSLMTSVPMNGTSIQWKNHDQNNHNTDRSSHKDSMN

[3] = molecular target: T3, Alpha-1D adrenergic receptor (Homo sapiens, UniProt P25100); format: cell membranes, HEK293, Membrane; note: in other assays of this panel Not Active means under 50% inhibition at 10 µM
T3 sequence (P25100 whole entry): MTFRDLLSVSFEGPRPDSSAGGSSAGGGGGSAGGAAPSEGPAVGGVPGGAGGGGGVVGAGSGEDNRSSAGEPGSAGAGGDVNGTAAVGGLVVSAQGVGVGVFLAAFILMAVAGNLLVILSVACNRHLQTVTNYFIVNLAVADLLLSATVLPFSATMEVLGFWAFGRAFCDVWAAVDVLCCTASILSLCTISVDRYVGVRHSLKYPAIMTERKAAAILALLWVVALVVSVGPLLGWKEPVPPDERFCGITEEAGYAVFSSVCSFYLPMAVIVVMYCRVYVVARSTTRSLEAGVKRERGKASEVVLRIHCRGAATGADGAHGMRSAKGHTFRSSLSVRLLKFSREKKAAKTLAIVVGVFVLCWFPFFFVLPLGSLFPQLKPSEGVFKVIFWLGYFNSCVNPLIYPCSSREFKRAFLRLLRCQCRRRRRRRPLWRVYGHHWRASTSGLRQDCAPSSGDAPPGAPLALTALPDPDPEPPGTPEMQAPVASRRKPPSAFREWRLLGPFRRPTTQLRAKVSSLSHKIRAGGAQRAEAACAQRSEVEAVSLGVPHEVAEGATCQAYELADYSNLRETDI

Melanocortin receptor 4 = Melanocortin receptor 4 (Homo sapiens, UniProt P32245); format: cell membranes, Membrane; details: hek293; note: in other assays of this panel Not Active means under 50% inhibition at 10 µM
Sequence of Melanocortin receptor 4 (P32245 whole entry): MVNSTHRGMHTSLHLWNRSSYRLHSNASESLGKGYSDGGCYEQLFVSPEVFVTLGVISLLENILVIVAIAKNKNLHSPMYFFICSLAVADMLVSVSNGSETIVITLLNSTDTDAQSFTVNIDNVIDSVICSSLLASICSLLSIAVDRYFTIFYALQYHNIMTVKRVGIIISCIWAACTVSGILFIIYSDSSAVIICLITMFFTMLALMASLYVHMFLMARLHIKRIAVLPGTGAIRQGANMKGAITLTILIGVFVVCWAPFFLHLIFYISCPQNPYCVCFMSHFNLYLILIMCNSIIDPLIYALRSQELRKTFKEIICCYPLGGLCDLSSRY

[4] = molecular target: Beta-2 adrenergic receptor (Homo sapiens, UniProt P07550); assay: DRUGMATRIX: Adrenergic beta2 radioligand binding (ligand: [3H] CGP-12177); format: cell membranes, CHO, Membrane; details: cho; Not Active = under 50% inhibition at 10 µM

Compound	IC50 [1]	IC50 [2]	IC50 (Endothelin-1 receptor)	IC50 ([3]; hek293)	IC50 (Melanocortin receptor 4)	IC50 [4]	IC50 ([3]; read-out: IC50)	Ki ([3]; read-out: Ki)	Ki [1]	Ki [2]	Ki (Endothelin-1 receptor)	Ki ([3]; hek293)	Ki (Melanocortin receptor 4)	Ki [4]	IC50 (Melanocortin receptor 4; read-out: IC50)	Ki (Melanocortin receptor 4; read-out: Ki)
C[C@@H]1C/C=C/C=C/C=C/C=C/[C@H](O[C@@H]2O[C@H](C)[C@@H](O)[C@H](N)[C@@H]2O)C[C@@H]2O[C@](O)(C[C@@H](O)C[C@H]3O[C@@H]3/C=C/C(=O)O1)C[C@H](O)[C@H]2C(=O)O [NATAMYCIN]	Not Active	Not Active	Not Active	Not Active	Not Active	Not Active	–	–	–	–	–	–	–	–	–	–
CN(C)C(=O)Oc1cccc([N+](C)(C)C)c1.[Br-] [NEOSTIGMINE BROMIDE]	Not Active	Not Active	Not Active	Not Active	Not Active	Not Active	–	–	–	–	–	–	–	–	–	–
NC(=O)c1cccnc1 [NIACINAMIDE]	Not Active	Not Active	Not Active	Not Active	Not Active	Not Active	–	–	–	–	–	–	–	–	–	–
CS(=O)(=O)Nc1ccc([N+](=O)[O-])cc1Oc1ccccc1 [NIMESULIDE]	Not Active	Not Active	Not Active	Not Active	Not Active	Not Active	–	–	–	–	–	–	–	–	–	–
CN1C(=O)CN=C(c2ccccc2)c2cc([N+](=O)[O-])ccc21 [NIMETAZEPAM]	Not Active	Not Active	Not Active	Not Active	Not Active	Not Active	–	–	–	–	–	–	–	–	–	–
COc1ccc2c(c1OC)C(=O)O[C@@H]2[C@H]1c2c(cc3c(c2OC)OCO3)CCN1C [NOSCAPINE]	Not Active	Not Active	Not Active	Not Active	Not Active	Not Active	–	–	–	–	–	–	–	–	–	–
C[C@@H]1O[C@@H](O[C@H]2C[C@@H](O)[C@]3(CO)[C@H]4[C@H](O)C[C@]5(C)[C@@H](C6=CC(=O)OC6)CC[C@]5(O)[C@@H]4CC[C@]3(O)C2)[C@H](O)[C@H](O)[C@H]1O [OUABAIN]	Not Active	Not Active	Not Active	Not Active	Not Active	Not Active	–	–	–	–	–	–	–	–	–	–
NC(=O)N1c2ccccc2CC(=O)c2ccccc21 [OXCARBAZEPINE]	Not Active	Not Active	Not Active	Not Active	Not Active	Not Active	–	–	–	–	–	–	–	–	–	–
COc1ccnc(C[S+]([O-])c2nc3ccc(OC(F)F)cc3[nH]2)c1OC (stereo not drawn) [PANTOPRAZOLE]	Not Active	Not Active	Not Active	Not Active	Not Active	Not Active	–	–	–	–	–	–	–	–	–	–
N=C(N)c1ccc(OCCCCCOc2ccc(C(=N)N)cc2)cc1 [PENTAMIDINE]	Not Active	Not Active	Not Active	Not Active	Not Active	Not Active	–	–	–	–	–	–	–	–	–	–
NNCCc1ccccc1 [PHENELZINE]	Not Active	Not Active	Not Active	Not Active	Not Active	Not Active	–	–	–	–	–	–	–	–	–	–
CCc1ccc(CCOc2ccc(CC3SC(=O)NC3=O)cc2)nc1 (stereo not drawn) [PIOGLITAZONE]	Not Active	Not Active	Not Active	Not Active	Not Active	Not Active	–	–	–	–	–	–	–	–	–	–
CCCNC(C)C(=O)Nc1ccccc1C (stereo not drawn) [PRILOCAINE]	Not Active	Not Active	Not Active	Not Active	Not Active	Not Active	–	–	–	–	–	–	–	–	–	–
CCN(CC)CCNC(=O)c1ccc(N)cc1 [PROCAINAMIDE]	Not Active	Not Active	Not Active	Not Active	Not Active	Not Active	–	–	–	–	–	–	–	–	–	–
CCN(CC)CCCC(C)Nc1c2ccc(Cl)cc2nc2ccc(OC)cc12 (stereo not drawn) [QUINACRINE]	Not Active	Not Active	Not Active	–	Not Active	Not Active	2070 nM	1020 nM	–	–	–	–	–	–	–	–
C[C@]12C=CC(=O)C=C1CC[C@H]1[C@@H]3C[C@@H](O)[C@](O)(C(=O)CO)[C@@]3(C)C[C@H](O)[C@@]12F [TRIAMCINOLONE]	Not Active	Not Active	Not Active	Not Active	Not Active	Not Active	–	–	–	–	–	–	–	–	–	–
CC[C@]1(O)C[C@@H]2CN(CCc3c([nH]c4ccccc34)[C@@](C(=O)OC)(c3cc4c(cc3OC)N(C)[C@H]3[C@@](O)(C(N)=O)[C@H](O)[C@]5(CC)C=CCN6CC[C@]43[C@@H]65)C2)C1 [VINDESINE]	Not Active	Not Active	Not Active	Not Active	Not Active	Not Active	–	–	–	–	–	–	–	–	–	–
CCN(C(C)=O)c1cccc(-c2ccnc3c(C#N)cnn23)c1 [ZALEPLON]	Not Active	Not Active	Not Active	Not Active	Not Active	Not Active	–	–	–	–	–	–	–	–	–	–
COBALTOUS CHLORIDE	Not Active	Not Active	Not Active	Not Active	Not Active	Not Active	–	–	Not Active	Not Active	Not Active	Not Active	Not Active	Not Active	–	–
COLISTIN	Not Active	Not Active	Not Active	Not Active	–	Not Active	–	–	Not Active	Not Active	Not Active	Not Active	–	Not Active	841 nM	809 nM
